The subject of test [1] is acid(ASIC3)-induced chronic muscle pain. The experiment in a line: Acid-induced chronic muscle pain model (repeated intramuscular acid injection, von Frey test). In kind it is in vivo, mice. Particulars: T1-11 4 pmole, co-injected with acid saline pH 4.0 into gastrocnemius muscle. An excerpt:
Adult (8- to 12-wk-old) C57/BL6 mice were used. All procedures followed the Guide for the Use of Laboratory Animals (National Academy Press, Washington D.C., USA) and were approved by the Institutional Animal Care and Use Committee of Academia Sinica. We aimed to minimize the number of animals used and their suffering without compromising the quality of the experiments. The generation and genotyping of Tac1^−/− mice and Asic3^−/− mice were as described. Both null mutant mice were backcrossed to C57/BL6 for 10 generations to establish a congenic strain. Congenic Tac1^−/− Asic3^−/− mice were offspring of Tacl^+/− and Asic3^+/− intercrosses.
Mice received an intramuscular acid injection in the gastrocnemius muscle (GM) containing 20 μl acid saline (pH 4.0) with or without (Sar^9, Met(O2)^11)-substance P (SP; 4, 10, or 40 μM) or 100 μM RP67580 or 200 μM XE991. Mechanical hyperalgesia was assessed by applying a 0.2-mN von Frey filament to the plantar surface of both hind paws of mice. Mice were acclimatized in an acrylic cubicle for 60 min before testing. A positive response was defined as the foot lifting when the von Frey filament was applied. For each paw, the filament was applied 5 times at 30-sec intervals. Responses of the paw to mechanical stimuli were measured before injection and at 4 and 24 hr and 5 days after the first acid injection (day 0) and at 4, 24, and 72 hr and 1 week after the second acid injection (day 5). For single-injection experiments, responses to mechanical stimuli were measured before the injection, at 4 hr and at 1, 3, 5, 7, 9, 11, 13, 15 and 22 days after the injection or at 4, 24, 48 hr and 7 and 14 days after the injection. NK1-selective agonist ((Sar^9, Met(O2)^11)—SP) was from Sigma Chemical (St. Louis, Mo.). NK1-selective antagonist (RP67580) and XE991 were from Tocris (Avonmouth, UK). The experimenters were blinded to the experimental manipulations. The person who conducted von Frey test had no information of the mouse genotypes or drug injections.

Test [2] has as its system muscle nociceptors (ASIC3-positive muscle afferent DRG neurons expressing ISP-O). The experiment in a line: Whole-cell patch-clamp recording of outward currents in muscle afferent DRG neurons. The test is classed as cell-based, mice. The protocol: The digested DRG neurons were washed with fetal calf serum (FCS)-free DMEM or DMEM containing 10% FCS during each treatment. Fully digested DRGs were triturated and plated on poly-L-lysine-coated cover slides. Cell cultures were maintained in a 5% CO2 incubator at 37° C.
Whole-cell patch-clamp recordings of muscle-afferent neurons involved use of Axopatch MultiClamp 700B (Axon Instruments). Neurons with membrane potential >−40 mV were discarded. The bridge was balanced in current-clamp recording, and the series resistance was compensated 70% in voltage-clamp recording with […] 700B compensation circuitry. All experiments were performed at room temperature (21-25° C.) and completed within 30 hr post-seeding. Unless specifically mentioned, the patch pipettes were prepared in 1-5 MΩ and filled with internal solution containing (in mM) 100 KCl, 2 Nae-ATP, 0.3 Na3-GTP, 10 EGTA, 5 MgCl2, and 40 HEPES, adjusted to pH 7.4 with KOH. Recording cells were superfused in artificial cerebrospinal fluid (ACSF) by control with gravitational force. The ACSF contained (in mM) 130 NaCl, 5 KCl, 1 MgCl2, 2 CaCl2, 10 glucose, and 20 HEPES, adjusted to pH 7.4 with NaOH. Osmolarity was adjusted to 300 mOsm. The acidic ACSF was titrated to pH 6.8 by […]. […] If not specifically mentioned, drugs listed above were from Sigma Chemical (St. Louis, Mo.).
The procedure was repeated at least 2 times to ensure consistent data. […] ACSF-containing compounds were superfused for 1 min to ensure complete replacement of previous perfusate between treatments. […] A recording pipette containing 1 mM GDP-β-S was used in GTP dialysis. The GABA-B current was induced by 100 μM Baclofen at the beginning of dialysis (0, 1 and 2 min after whole-cell patch clamp). Then, Baclofen was used to re-stimulate the dialyzed neurons after 10-min dialysis (10, 11 and 12 min after whole-cell patch clamp).

The test system of test [3] is ASIC3. The experiment in a line: Whole-cell patch clamp of acid-induced current in CHO cells transfected with ASIC3. The test is classed as cell-based. Background: Patch clamp records ionic current or voltage across a cell membrane.
Test [4] deals with acid-induced chronic muscle pain after genistein treatment. The experiment in a line: Modified acid-induced chronic muscle pain model with genistein treatment (fibromyalgia model). The test is classed as in vivo, mice. The protocol: Panel A: a diagram showing that mice were first received an intramuscular injection of genistein (a tyrosine kinase inhibitor) and an acid saline to one side of gastrocnemius muscle, and then pain behaviors were assayed by using von-Frey filament test at 4 hr (D0) and until 29 days (D29) after acid injection. Panel B: is a chart showing that the single acid injection induced long-lasting chronic hyperalgesia in mice with genistein pretreatment (open circles, n=5), but only transient hyperalgesia in mice without genistein pretreatment (filled circles, n=4).
Mice received an intramuscular acid injection in the gastrocnemius muscle (GM) containing 20 μl acid saline (pH 4.0) with or without (Sar^9, Met(O2)^11)-substance P (SP; 4, 10, or 40 μM) or 100 μM RP67580 or 200 μM XE991. Mechanical hyperalgesia was assessed by applying a 0.2-mN von Frey filament to the plantar surface of both hind paws of mice. […] Responses of the paw to mechanical stimuli were measured before injection and at 4 and 24 hr and 5 days after the first acid injection (day 0) and at 4, 24, and 72 hr and 1 week after the second acid injection (day 5). For single-injection experiments, responses to mechanical stimuli were measured before the injection, at 4 hr and at 1, 3, 5, 7, 9, 11, 13, 15 and 22 days after the injection or at 4, 24, 48 hr and 7 and 14 days after the injection. […]

The subject of test [5] is ICS-induced pain. The experiment in a line: Intermittent cold stress (ICS) mouse model of fibromyalgia, von Frey test. In kind it is in vivo, mice. The protocol: Mechanical hyperalgesia was assessed by applying a 0.2 mN von Frey filament to the plantar surface of both hind paws. For each paw, the filament was applied for 5 times at 30-s intervals.
To induce fibromyalgia-like symptoms, mice were treated with intermittent cold stress, which produces long-lasting (more than 2 weeks) thermal hyperalgesia and mechanical allodynia, predominantly in females. Method: Mice were placed on stainless mesh plate in a cold room at 4° C. overnight (from 4:30 pm to 10:00 am), followed by intermittent cold stress with environment temperatures alternating between 24 and 4° C. every 30 min, from 10:00 am to 4:30 pm. These procedures were repeated twice. On day 3, the mice were adapted to 24 C for 1 h before behavioral testing.
The second fibromyalgia model is developed by Ueda's group, in which mice were treated with intermittent cold stress for 2 days (Nishiyori & Ueda, 2008). Mice treated with intermittent cold stress will develop long-lasting (>2 weeks) mechanical and thermal hyperalgesia. Analgesic effect of T1-11 was tested in these mice 5 day after intermittent cold stress (ICS). […] Moreover, we found T1-11 and substance P have synergistic effect in treating the ICS-induced pain.

Entries after “also recorded” stand apart in the source; their conditions may differ.

For `OC[C@H]1O[C@@H](n2cnc3c(NCc4ccc(O)cc4)ncnc32)[C@H](O)[C@@H]1O` [T1-11, N^6-(4-hydroxybenzyl)adenosine], in test [1], the “acid-induced hyperalgesia, co-injection of acid and T1-11” value was “abolished the transient hyperalgesia and prevented the development of chronic hyperalgesia; also recorded: still had analgesic effects”. Also, in test [2] (A2A−/− neurons), the “IT1-11 in A2A−/− muscle afferent DRG neurons” value is on record as “not changed”. Also, the concentration for a half-maximal effect (EC50) in test [2] (Mus musculus, DRG neuron, peak whole-cell current, 1, 3, 10, 30 and 100 nM, n=11, read-out: EC50 of T1-11-induced outward current (IT1-11)) worked out at 1.3 nM. In test [2] (SP-sensitive muscle nociceptors), the “induction of outward current in ASIC3/SP-expressing muscle DRG neurons” value was “elicited a slow inactivating outward current”. Further, the “effect on M-type potassium current” value in test [2] (voltage shift from −50 mV to −20 mV, muscle afferent neurons expressing ISP-O) is given as “enhanced M current”. The “acid-induced current in CHO cells transfected with ASIC3” value in test [3] is on record as “blocked”. Moreover, in test [4] (T1-11 75-150 μg/kg (i.p.)), the “analgesic effect on mice that have developed chronic muscle pain” value is listed as “dose-dependent analgesic effect”. Besides, the “hyperalgesia after genistein pretreatment and single acid injection, co-injection of acid and T1-11” value in test [4] (co-injection with acid, n=6, D0 to D29) is reported as “only showed the transient hyperalgesia”. Moreover, the “analgesic effect on ICS-treated mice, T1-11 alone” value in test [5] (T1-11 3 μg/kg alone) is “did not show analgesic effect”. The “analgesic effect on ICS-treated mice, combination” value in test [5] (T1-11 3 μg/kg combined with 0.6 mg/kg SM-substance P) is given as “showed analgesic effect”. Besides, the “analgesic effect on mice treated with ICS” value in test [5] (T1-11 30 ug/kg) is reported as “had analgesic effect”. Besides, the “therapeutic dose to treat the ICS-induced pain” value in test [5] (i.p., 5 day after ICS) stood at 0.03 mg/kg.

By EC50 is commonly meant the concentration giving half of the maximal effect.
